Data taken from the CheMixHub ionic liquid set.
± gives the uncertainty stated by the source.

Assay: xn = mol fraction of the nth substance listed
Conditions: for electrical conductivity: 101 kPa, frequency 2 MHz; for viscosity: 100 kPa

O=S(=O)([O-])C(F)(F)F.[Li+] + O=S(=O)([N-]S(=O)(=O)C(F)(F)F)C(F)(F)F.[Li+] + O
Conditions | electrical conductivity, 318.1 K [S/m] | electrical conductivity, 323 K [S/m] | electrical conductivity, 328.1 K [S/m] | electrical conductivity, 333 K [S/m] | viscosity, 318.15 K [mPa·s] | viscosity, 328.15 K [mPa·s]
x1 = 0.04029, x2 = 0.1114 | – | – | – | – | 4.4 ± 0.4 | 3.5 ± 0.3
x1 = 0.07222, x2 = 0.1893 | – | – | – | – | 15.2 ± 1.2 | 11.5 ± 0.9
x1 = 0.09226, x2 = 0.2336 | – | – | – | – | 31.9 ± 2.6 | 22.9 ± 1.8
x1 = 0.1024, x2 = 0.2553 | – | – | – | – | 43.4 ± 3.5 | 30.9 ± 2.5
x1 = 0.1122, x2 = 0 | – | – | – | – | 2.27 ± 0.18 | 1.85 ± 0.15
x1 = 0.1122, x2 = 0.2745 | – | – | – | – | 63 ± 5 | 43.6 ± 3.5
x1 = 0.1783, x2 = 0 | – | – | – | – | 5.3 ± 0.4 | 4.2 ± 0.3
x1 = 0.2388, x2 = 0 | – | – | – | – | 11.1 ± 0.9 | 8.6 ± 0.7
x1 = 0.2541, x2 = 0 | – | – | – | – | 15.9 ± 1.3 | 12.2 ± 1
x1 = 0.2743, x2 = 0 | – | – | – | – | 23.9 ± 1.9 | 18.1 ± 1.5
x2 = 0.001799, x1 = 0.0005943 | 1.16 ± 0.012 | 1.26 ± 0.013 | 1.37 ± 0.014 | 1.47 ± 0.015 | – | –
x2 = 0.005377, x1 = 0.001799 | 2.87 ± 0.029 | 3.132 ± 0.031 | 3.4 ± 0.034 | 3.66 ± 0.037 | – | –
x2 = 0.00893, x1 = 0.003054 | 4.22 ± 0.042 | 4.612 ± 0.046 | 5.004 ± 0.05 | 5.39 ± 0.054 | – | –
x2 = 0.01246, x1 = 0.004127 | 5.324 ± 0.053 | 5.82 ± 0.058 | 6.316 ± 0.063 | 6.804 ± 0.068 | – | –
x2 = 0.01596, x1 = 0.005377 | 6.231 ± 0.062 | 6.813 ± 0.068 | 7.39 ± 0.074 | 7.97 ± 0.08 | – | –
x2 = 0.01944, x1 = 0.006623 | 6.98 ± 0.07 | 7.629 ± 0.076 | 8.28 ± 0.083 | 8.919 ± 0.089 | – | –
x2 = 0.05129, x1 = 0.0177 | 9.39 ± 0.094 | 10.26 ± 0.1 | 11.13 ± 0.11 | 12 ± 0.12 | – | –
x2 = 0.08265, x1 = 0.02921 | 8.25 ± 0.083 | 9.028 ± 0.09 | 9.803 ± 0.098 | 10.6 ± 0.11 | – | –
x2 = 0.112, x1 = 0.04029 | 6.46 ± 0.065 | 7.08 ± 0.071 | 7.716 ± 0.077 | 8.339 ± 0.083 | – | –
x2 = 0.1395, x1 = 0.05129 | 4.845 ± 0.048 | 5.343 ± 0.053 | 5.846 ± 0.058 | 6.348 ± 0.063 | – | –
x2 = 0.1654, x1 = 0.06203 | 3.58 ± 0.036 | 3.97 ± 0.04 | 4.37 ± 0.044 | 4.78 ± 0.048 | – | –
x2 = 0.1898, x1 = 0.07238 | 2.631 ± 0.026 | 2.943 ± 0.029 | 3.27 ± 0.033 | 3.59 ± 0.036 | – | –
x2 = 0.2128, x1 = 0.08265 | 1.932 ± 0.019 | 2.18 ± 0.022 | 2.439 ± 0.024 | 2.706 ± 0.027 | – | –
x2 = 0.2345, x1 = 0.0927 | 1.418 ± 0.014 | 1.616 ± 0.016 | 1.824 ± 0.018 | 2.041 ± 0.02 | – | –
x2 = 0.2551, x1 = 0.1024 | 1.04 ± 0.01 | 1.2 ± 0.012 | 1.36 ± 0.014 | – | – | –
x2 = 0.2745, x1 = 0.112 | 0.76 ± 0.008 | 0.884 ± 0.009 | 1.017 ± 0.01 | – | – | –
